In patent publication US9599627B2, “NMR methods for monitoring blood clot formation” (T2 Biosystems, Inc., priority 2011, dated 2017):

Tests used:
[1] = test system: P2Y12 pathway in platelets; assay: T2MR platelet inhibition, ADP activation formulation in citrated whole blood; type: cell-based, human; conditions: ex vivo spiked MeSAMP, healthy donors
Source text: We have developed a standard formulation for ADP activation of platelets in citrated whole blood which uses the addition of heparin to control thrombin activation, thereby minimizing variability in platelet activation via thrombin. Clotting in such a system is initiated with a combination of calcium (to overcome citrate), and reptilase/factor XIIIa (to replace thrombin). The complete one-pot activation mixture which activates platelets via ADP, and is therefore useful in probing the state of the P2Y12 ADP receptor, contains heparin, reptilase, factor XIIIa, calcium, and ADP.
In this experiment inhibition of the P2Y12 pathway in platelets by using the ex vivo spiked MeSAMP (2-thiomethyl AMP, an irreversible ADP P2Y12 receptor inhibitor) as a mimic for Plavix inhibition of platelet activity was tested.
A standard ADP activation formulation including heparin, reptilase, factor XIIIa, calcium, and ADP was used to activate platelet in citrated whole blood obtained from healthy donors. Samples were tested in the presence and absence of the platelet activation inhibitor MeSAMP. Again we observed that the clot signature was dependent on platelet activity.

anti-Xa = assay: PT clotting time of spiked samples (T2MR and Stago); type: cell-based, human; conditions: spiked at 10 ng/mL-1000 ng/mL
Description: Clotting times were measured by […] by first establishing a time zero T2 value (i.e., by taking the first point or some sort of average or linear fit to the first 5-10 data points) of the T2 time curve, and second identifying the time point (i.e., the clotting time or PT time) in the T2 time curve when the T2 value had changed by a predetermined amount (e.g. 5% or 10%) indicative of clotting in the sample. From the observed PT clotting time the INR was calculated using the methods described in Jan et al., Clin. Chem. 35:840 (1989). […] 18 normal samples and 24 abnormal samples were tested against a reference range established by 20 normal samples. Abnormal samples with prolonged PT times were obtained by spiking increasing levels of the anti-Xa inhibitor Rivaroxiban (10 ng/mL-1000 ng/mL). Correlation with TEG clotting time was obtained across >40 normal patient samples with non-optimized R2 correlation of >0.8. (see FIG. 14B). PT time correlations with Stago for plasma (see FIG. 14D) and with Hemochron for whole blood (see FIG. 14C) were also found.

platelet activity = assay: T2MR platelet inhibition, heparin blood activated by AA+RF; type: cell-based; conditions: 600 μM aspirin ex vivo, AA+RF activation
Description: In this experiment platelet inhibition was monitored by the addition of 600 μM aspirin ex vivo to heparin blood prior to activation by AA+RF (samples were tested with and without aspirin). […] These studies confirmed that the clot signature was dependent on platelet activity.

## CSc1nc(N)c2ncn([C@@H]3O[C@H](COP(=O)(O)O)[C@@H](O)[C@H]3O)c2n1 [MeSAMP, 2-thiomethyl AMP]
[1]
  clot-associated T2 signal: dramatically diminished or absent

## O=C(NC[C@H]1CN(c2ccc(N3CCOCC3=O)cc2)C(=O)O1)c1ccc(Cl)s1 [Rivaroxiban]
anti-Xa
  PT times: prolonged

## CC(=O)Oc1ccccc1C(=O)O [aspirin]
Platelet activity
  clot-associated T2 signal: dramatically diminished or absent
